Tests used:
[1] = target: T1, mGAT4 (Mus musculus, UniProt P31650); experiment: [3H]GABA uptake, intact HEK293 cells; format: cell-based
T1 construct: gene Slc6a11; full-length transporter stably expressed in HEK293 cells
T1 sequence (P31650 1-627): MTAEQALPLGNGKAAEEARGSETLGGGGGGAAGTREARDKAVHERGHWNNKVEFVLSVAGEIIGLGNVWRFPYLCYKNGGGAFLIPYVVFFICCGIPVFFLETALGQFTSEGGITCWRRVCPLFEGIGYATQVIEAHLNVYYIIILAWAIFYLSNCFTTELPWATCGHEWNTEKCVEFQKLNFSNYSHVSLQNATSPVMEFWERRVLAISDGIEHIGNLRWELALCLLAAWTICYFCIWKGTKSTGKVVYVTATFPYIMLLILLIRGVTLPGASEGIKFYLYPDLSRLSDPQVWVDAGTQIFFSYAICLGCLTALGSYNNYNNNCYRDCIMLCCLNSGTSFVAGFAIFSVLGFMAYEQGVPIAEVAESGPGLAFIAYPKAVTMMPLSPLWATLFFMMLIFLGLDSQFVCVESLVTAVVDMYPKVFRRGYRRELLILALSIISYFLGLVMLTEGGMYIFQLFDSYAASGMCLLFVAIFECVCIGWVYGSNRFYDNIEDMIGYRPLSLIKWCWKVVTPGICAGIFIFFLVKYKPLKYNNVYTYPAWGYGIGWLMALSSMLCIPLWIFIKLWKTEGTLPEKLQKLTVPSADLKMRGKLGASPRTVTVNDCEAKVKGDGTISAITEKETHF

[2] = target: T2, mGAT1 (Mus musculus, UniProt P31648); experiment: [3H]GABA uptake, intact HEK293 cells; format: cell-based
T2 construct: gene Slc6a1; full-length transporter stably expressed in HEK293 cells
Text: [3H]GABA uptake, intact HEK293 cells on mGAT1

[3] = target: T3, mGAT3 (Mus musculus, UniProt P31649); experiment: [3H]GABA uptake, intact HEK293 cells; format: cell-based
T3 construct: gene Slc6a13; full-length transporter stably expressed in HEK293 cells; mouse nomenclature, equivalent of hGAT-2
T3 sequence (P31649 1-602): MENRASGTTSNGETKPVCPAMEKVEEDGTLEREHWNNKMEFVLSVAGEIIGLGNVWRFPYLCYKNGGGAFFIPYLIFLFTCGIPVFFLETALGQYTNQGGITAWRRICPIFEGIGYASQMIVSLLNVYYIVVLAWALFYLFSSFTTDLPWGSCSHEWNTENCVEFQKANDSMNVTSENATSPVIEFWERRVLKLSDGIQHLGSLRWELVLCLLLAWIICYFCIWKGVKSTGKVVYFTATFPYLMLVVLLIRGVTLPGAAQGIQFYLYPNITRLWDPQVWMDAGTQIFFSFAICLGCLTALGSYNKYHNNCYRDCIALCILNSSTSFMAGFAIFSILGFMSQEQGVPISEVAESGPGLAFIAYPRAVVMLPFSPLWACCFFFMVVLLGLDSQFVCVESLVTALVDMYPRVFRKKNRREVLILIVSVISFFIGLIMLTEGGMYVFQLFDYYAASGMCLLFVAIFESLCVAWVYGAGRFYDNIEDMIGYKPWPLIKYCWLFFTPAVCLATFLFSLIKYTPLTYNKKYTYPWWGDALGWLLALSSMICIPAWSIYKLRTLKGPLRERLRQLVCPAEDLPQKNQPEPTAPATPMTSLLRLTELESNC
Text: [3H]GABA uptake, intact HEK293 cells on mGAT3

[4] = target: T2, mGAT1; experiment: competitive MS Binding Assay, NO711 marker, HEK293 membranes
Text: competitive MS Binding Assay, NO711 marker, HEK293 membranes on mGAT1

[5] = target: T4, mGAT2 (Mus musculus, UniProt P31651); experiment: [3H]GABA uptake, intact HEK293 cells; format: cell-based
T4 construct: gene Slc6a12; full-length transporter stably expressed in HEK293 cells; mouse nomenclature, equivalent of hBGT-1
T4 sequence (P31651 1-614): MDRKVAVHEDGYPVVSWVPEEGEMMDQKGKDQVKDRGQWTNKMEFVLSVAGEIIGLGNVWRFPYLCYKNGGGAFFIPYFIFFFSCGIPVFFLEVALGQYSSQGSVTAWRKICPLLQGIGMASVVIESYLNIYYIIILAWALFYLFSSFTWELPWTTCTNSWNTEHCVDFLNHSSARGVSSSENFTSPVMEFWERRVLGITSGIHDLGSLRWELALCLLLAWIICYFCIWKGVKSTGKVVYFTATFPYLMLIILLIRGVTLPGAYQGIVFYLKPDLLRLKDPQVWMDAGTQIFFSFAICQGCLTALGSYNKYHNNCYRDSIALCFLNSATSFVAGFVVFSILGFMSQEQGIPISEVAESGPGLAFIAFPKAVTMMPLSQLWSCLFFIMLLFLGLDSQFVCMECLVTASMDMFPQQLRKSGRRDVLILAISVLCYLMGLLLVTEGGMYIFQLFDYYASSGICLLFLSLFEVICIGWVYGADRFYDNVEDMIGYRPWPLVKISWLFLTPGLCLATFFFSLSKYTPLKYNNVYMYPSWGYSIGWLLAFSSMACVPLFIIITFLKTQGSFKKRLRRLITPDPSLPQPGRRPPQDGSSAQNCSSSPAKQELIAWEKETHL
Text: [3H]GABA uptake, intact HEK293 cells on mGAT2

[6] = target: T5, hGAT-3 (Homo sapiens, UniProt P48066); experiment: MS Transport Assay (GABA transport), COS-7 cells; format: cell-based
T5 construct: gene SLC6A11; full-length transporter stably expressed in COS-7 cells
T5 sequence (P48066 1-632): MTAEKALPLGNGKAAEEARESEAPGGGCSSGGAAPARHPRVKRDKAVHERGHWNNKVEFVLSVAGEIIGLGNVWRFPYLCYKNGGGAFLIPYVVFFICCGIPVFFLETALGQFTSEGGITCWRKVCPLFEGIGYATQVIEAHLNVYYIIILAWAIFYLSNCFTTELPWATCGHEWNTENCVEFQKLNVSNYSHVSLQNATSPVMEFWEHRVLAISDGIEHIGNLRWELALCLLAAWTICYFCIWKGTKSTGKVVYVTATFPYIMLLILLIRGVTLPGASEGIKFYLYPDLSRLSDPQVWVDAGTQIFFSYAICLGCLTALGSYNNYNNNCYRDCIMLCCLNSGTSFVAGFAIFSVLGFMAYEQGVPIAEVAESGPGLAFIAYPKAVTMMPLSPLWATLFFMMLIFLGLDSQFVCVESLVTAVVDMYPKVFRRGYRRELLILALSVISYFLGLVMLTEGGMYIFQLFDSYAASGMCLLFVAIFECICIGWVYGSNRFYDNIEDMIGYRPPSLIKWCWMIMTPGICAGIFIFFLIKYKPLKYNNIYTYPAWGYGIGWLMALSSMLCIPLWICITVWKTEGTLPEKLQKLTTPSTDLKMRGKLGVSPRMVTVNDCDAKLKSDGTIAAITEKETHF
Text: MS Transport Assay (GABA transport), COS-7 cells on hGAT-3

[7] = target: T1, mGAT4; experiment: [3H]GABA uptake, intact HEK293 cells; format: cell-based; remark: listed apart in the source
Text: [3H]GABA uptake, intact HEK293 cells on mGAT4

SMILES | IC50 [1] [µM] | IC50 [2] [µM] | IC50 [3] [µM] | Ki [4] [µM] | IC50 [5] [µM] | IC50 [6] [µM] | remaining activity at 100 µM [7] [%] | remaining activity at 100 µM [3] [%]
O=C(O)C1CCCN(CCC=C=C(c2ccc(Cl)cc2)c2ccc(Cl)cc2)C1 (racemic) [rac-11d, rac-{1-[5,5-Bis(4-chlorophenyl)penta-3,4-dien-1-yl]piperidine-3-carboxylic acid}] | 17 | 1.91 | 28.2 | 0.631 | 12 | – | – | –
O=C(O)C1CCCN(CCC=C=C(c2ccccc2)c2ccc(-c3ccccc3)cc2)C1 (racemic) [11f, rac-{(Ra)-1-[5-(1,1’-biphenyl-4-yl)-5-phenylpenta-3,4-dien-1-yl]-(3R)-piperidine-3-carboxylic acid} [rac-(3R,Ra)-11f] and rac-{(Sa)-1-[5-(1,1’-biphenyl-4-yl)-5-phenylpenta-3,4-dien-1-yl]-(3R)-piperidine-3-carboxylic acid}] | 12.6 | 4.68 | 10.2 | 0.891 | 12.3 | 6.17 | – | –
O=C(O)C1CCCN(CCC=C=C(c2ccccc2)c2ccccc2)C1 (racemic) [rac-11a, rac-[1-(5,5-Diphenylpenta-3,4-dien-1-yl)piperidine-3-carboxylic acid]] | – | 24.5 | 129 | 5.5 | 178 | – | 64 | –
Cc1ccc(C(=C=CCN2CCCC(C(=O)O)C2)c2ccc(C)cc2)cc1 (racemic) [rac-8b, rac-[1-(4,4-Di-p-tolylbuta-2,3-dien-1-yl)piperidine-3-carboxylic acid]] | 11.5 | 6.46 | 10.5 | 1.38 | 27.5 | – | – | –
O=C(O)C1CCCN(CC=C=C(c2ccc(Cl)cc2)c2ccc(Cl)cc2)C1 (racemic) [rac-8d] | 0.832 | 0.372 | 2.95 | 0.155 | 7.59 | 0.447 | – | –
O=C(O)[C@H]1CCCN(CC=C=C(c2ccc(Cl)cc2)c2ccc(Cl)cc2)C1 [(S)-8d, (S)-1-[4,4-bis(4-chlorophenyl)buta-2,3-dien-1-yl]piperidine-3-carboxylic acid] | 0.257 | 1.35 | 1.1 | 2.51 | 4.07 | 0.324 | – | –
O=C(O)C1CCCN(CC=C=C(c2ccc(F)cc2)c2ccc(F)cc2)C1 (racemic) [rac-8c, rac-{1-[4,4-Bis(4-fluorophenyl)buta-2,3-dien-1-yl]piperidine-3-carboxylic acid}] | 30.2 | 1.07 | 69.2 | 0.562 | 79.4 | – | – | –
Cc1ccc(C(=C=CCCN2CCCC(C(=O)O)C2)c2ccc(C)cc2)cc1 (racemic) [rac-11b, rac-[1-(5,5-Di-p-tolylpenta-3,4-dien-1-yl)piperidine-3-carboxylic acid]] | 83.2 | 14.1 | 58.9 | 1.58 | 81.3 | – | – | –
O=C(O)C1CCCN(CC=C=C(c2ccccc2)c2ccccc2)C1 (racemic) [rac-8a, rac-[1-(4,4-Diphenylbuta-2,3-dien-1-yl)piperidine-3-carboxylic acid]] | – | 7.41 | – | 1.17 | – | – | 82 | –
O=C(O)C1CCCN(CCC=C=C(c2ccc(F)cc2)c2ccc(F)cc2)C1 (racemic) [rac-11c, rac-{1-[5,5-Bis(4-fluorophenyl)penta-3,4-dien-1-yl]piperidine-3-carboxylic acid}] | – | 12.9 | – | 3.24 | – | – | 63 | 50
O=C(O)C1CCCN(CC=C=C(c2ccccc2)c2ccc(-c3ccccc3)cc2)C1 (racemic) [8f, rac-{(Ra)-1-[4-(1,1’-biphenyl-4-yl)-4-phenylbuta-2,3-dien-1-yl]-(3R)-piperidine-3-carboxylic acid} [rac-(3R,Ra)-8f] and rac-{(Sa)-1-[4-(1,1’-biphenyl-4-yl)-4-phenylbuta-2,3-dien-1-yl]-(3R)-piperidine-3-carboxylic acid}] | 4.47 | 5.01 | 8.32 | 1.23 | 6.46 | 1.66 | – | –
O=C(O)[C@@H]1CCCN(CC=C=C(c2ccc(Cl)cc2)c2ccc(Cl)cc2)C1 [(R)-8d] | 2 | 0.155 | 4.17 | 0.102 | 15.8 | 2.4 | – | –
COc1ccc2c(c1)CCCC2=C=CCN1CCCC(C(=O)O)C1 (racemic) [8g, rac-[(Ra)-1-{3-[6-methoxy-3,4-dihydronaphthalen-1(2H)-ylidene]allyl}-(3R)-piperidine-3-carboxylic acid] [rac-(3R,Ra)-8g] and rac-[(Sa)-1-{3-[6-methoxy-3,4-dihydronaphthalen-1(2H)-ylidene]allyl}-(3R)-piperidine-3-carboxylic acid]] | – | 13.5 | – | 58.9 | – | – | 70 | –
